Measured values from US20080145343A1, “Conjugates of biologically active compounds, methods for their preparation and use, formulation and pharmaceutical applications thereof” (priority 2002, published 2008).
Where two headings read alike, the source gives them in different places.

Assays:
[1] = test system: white blood cells; test: Immune cell selective uptake from blood cell mix (immune selectivity ratio method); assay type: cell-based, mammalian
Procedure: Freshly drawn heparinised blood or buffy coat preparations are used for the determination of immune cell partition ratios. Buffy coat preparations are preferred. These may be obtained from donor blood by simple centrifugation of whole blood (4795 g for 10 minutes). Following centrifugation, plasma is collected from the surface, after which immune cells are expressed from the donor bags along with the erythrocytes lying immediately below the leukocyte layer. This ensures high yields and a sufficient population of erythrocytes for partition. 5 ml of the resulting cell suspension are dispensed into T25 culture flasks. Substrates are added to a final concentration between 1 and 10 μM and the suspensions incubated at 37° C., in a 5% CO2 atmosphere. For analysis of uptake kinetics, samples are withdrawn at 0, 2, 5, 10, 30, 60, 90, 180, or 240 min after substrate addition. For screening purposes, samples are taken at 0 and 120 minutes. […]
Uptake of fluorescent compounds is monitored using fluorescence microscopy. Excitation and emission wavelengths depend of the fluorescence label in use. […]
Cell lysates are analysed using a HP 1100 HPLC System (Agilent Technologies, Waldbronn, Germany) with a Kromasil 3.5μ C18, 50×2.0 mm column and guard cartridge system (both, Phenomenex, Aschaffenburg, Germany) run at 30° C. […]
Masses are monitored according to the known or expected M/Z ratios. […]

[2] = test system: E. coli (DH5α); test: Testing of antibiotic activity (TC50, dilution assay, turbidity); assay type: cell-based; settings: concentration that inhibits 50% of the growth
Procedure: The TC50 or MIC procedure for antibiotic sensitivity testing involves an antibiotic dilution assay, which can be performed in microtitre plates. A series of twofold dilutions of each antibiotic are made in the wells, and then all wells are inoculated with a standard amount of the same test organism. After incubation, growth in the presence of the various antibiotics is observed by measuring turbidity.
Bacteria: B. pumilus and E. coli (DH5α) Bacterial cultures are initiated from the plates for 2 to 3 weeks. After this time period bacteria are streaked out on new plates from the backups stored at −80° C. Due to the lack of resistance of the bacteria, new cultures are not to be initiated from an old plate or any liquid cultures derived from old plates. Growth medium (GM) (per liter): 10 g Bacto-tryptone, 5 g Bacto-yeast extract, 6 g HEPES (25 mM), 5.4 g NaCl, pH 7.3 Compound stocks 10 or 100 mM in DMSO stored at −20° C.
• 1. Grow B. pumilus from an LB agar plate in a flask (max. 10% volume) up to about 50 ml in growth medium (GM) • 2. Dilute overnight suspension 1:10 in GM • 3. Determine OD600 of diluted bacterial suspension • 4. Dilute bacterial suspension in GM to an OD600 of 0.03-0.04. (6 ml/plate) • 5. Add 200 μl GM to the outer wells (Row A, Row H, Column 1, Column 12) • 6. Add 100 μl GM to each well starting from C2, row 3. • 7. Controls: Wells B2-B4 growth control. Wells B6-B8 blank. Row C growth inhibition control. • 7.1. To wells B2-B4 add: 96 μl GM, 4 μl DMSO, and 100 μl bacterial suspension adjusted to an OD600 of 0.03-0.04. • 7.2. To wells B6-B8 add: 196 μl GM and 4 μl DMSO • 7.3. Dilute a 10 mM Compound 43 (positive control) stock to 800 μM (120 μl/plate) in GM. Add 100 μl of 800 μM Compound 43 solution to well C2. • 8. Samples • 8.1. Dilute the 10 or 100 mM stock solutions to 800 μM (250 μl/plate) in GM. • 8.2. Add 100 μl of 800 μM sample in duplicates to wells D2/E2 resp. F2/G2. • 8.3. 2-fold serial dilution of all samples and Azithromycin • 8.3.1. Rows C-G, Columns 2: Mix and transfer 100 μl from each row to Column 3, and continue until column 11. The remaining 100 μl out of column 11 are disposed. • 9. Add 100 μl of bacterial suspension (OD600 0.03-0.04) to each well from C2-G11. • 10. Incubate plates on shaker, 750 rpm, 37° C., until the growth controls have reached an OD600 of 0.6-0.8 (approximately 6-8 h).
11. Determine OD600 on plate reader.

[3] = test system: lymphocytes; test: Proliferation assay (BrdU ELISA, phytohemagglutanin-stimulated); assay type: cell-based, mammalian; settings: for Ratio (2 h:72 h): IC50 at 2 h : IC50 at 72 h, lower = better uptake and release; for IC50: Lymphocyte
Excerpt: Assay to determine the in vitro rate of, for example, lymphocyte proliferation. Lymphocytes are purified out of ant coagulated (CPDA, citrate or heparin) mammalian blood using the Lymphoprep™ system (supplier). Purified cells are counted using a hemocytometer following Trypan Blue staining, and a cell concentration of 1×10^6 cells/ml established in RPMi 1640 medium with 10% FCS and antibiotics as required (all from Biochrome). Following the addition of a cell proliferation stimulant, for example phytohemagglutanin (Sigma) at, for example an end concentration of 5 μg/ml, the cells are incubated with different concentrations of the to be investigated compound in 100 μl end volume in a 96-well microtiter plate in an incubator (37° C., 5% CO2, 95% humidity) for 72 h. Cell proliferation is quantified following BrdU incorporation for 16 h by ELISA and subsequent calorimetric development (Cell Proliferation ELISA BrdU (colorimetric) kit from Roche Diagnostics). The IC50 (μM) values are then calculated, and used to compare compound efficacy.
To determine the influence of the T-L-C modification on in vitro cellular drug uptake and pharmacology, the above assay is additionally modified and an additional “wash” step included. In addition to running the assay for 72 h with the compounds to be tested, the assay is also run for just 2 h, then compound is washed away in three serial washing steps using 200 μl of medium at each step, and the cells subsequently incubated for a further 70 h. […] The lower the number, the better the uptake and drug release from the T-L-C in the cells (see results in Table 4 for examples), and improvement over mycophenolic acid.

[4] = test system: HeLa or JURKAT; test: Cytotoxicity assay (Alamar Blue) with guanosine rescue; assay type: cell-based
Procedure: HeLa cells (DSMZ, ACC 57) and Jurkat cells (DSMZ, ACC 282) in exponential growth phase are exposed for 3 days to test compounds. The number of surviving cells is then determined by the Alamar Blue assay (Serotec Inc.). This assay incorporates a fluorometric growth indicator based on detection of metabolic activity. Specifically, the system incorporates an oxidation-reduction indicator that fluoresces in response to chemical reduction of the growth medium resulting from cell growth. As cells grow in culture, innate metabolic activity results in a chemical reduction of the immediate surrounding environment. Continued growth maintains a reduced environment while inhibition of growth maintains an oxidized environment. […] Fluorescence is monitored at 560 nm (Exc.) and 590 nm Em.
HeLa cells (1×10^3) or JURKAT cells (1×10^3) are plated in 100 μl MEM medium (with Earle's salt; Biochrom KG) containing 10% FBS, 2 mM L-glutamine, and non-essential animo acids in 96-well plates and incubated at 37° C. and 5% CO2 atmosphere. […] The fluorescence is then measured as described above and the LD50 is determined based on a sigmoidal dose response regression. […] Any toxicity still detected can then be ascribed either to other biological effects of the of T-L-C conjugate of mycophenolic acid, or is due to the very high intracellular concentration of mycophenolic acid, following concentrative uptake into the cell.

[5] = read-out: IC50 (μM) at 2 h, 2 h with compound, washed away, further 70 h incubation
[6] = 72 h incubation with compound, read-out: IC50 (μM) at 72 h

SMILES	TC50 in E. coli [2] [µM]	Ratio (2 h:72 h) [3]	IC50 [3, 5] [µM]	IC50 [3, 6] [µM]	further results
CC[C@H]1OC(=O)[C@H](C)[C@@H](OC2C[C@@](C)(OC)[C@@H](O)[C@H](C)O2)[C@H](C)[C@@H](OC2O[C@H](C)C[C@H](N(C)C)[C@H]2O)[C@](C)(O)C[C@@H](C)/C(=N/OCc2cc(=O)oc3cc(OC)c(OC)cc23)[C@H](C)[C@@H](O)[C@]1(C)O (some centres unmarked) [Compound 3]					intracellular distribution ([1]; polymorphonuclear cells, fluorescent image (FIG. 3)): even distribution with some concentration near the nucleus
COc1cc(C)c(/C(=C\C(C)=O)CC(N)C(=O)O)cc1OC (centres unmarked) [Compound 4]					uptake speed ([1]; fluorescent compounds, images during uptake): uptake is rapid
CC[C@H]1OC(=O)[C@H](C)C(=O)[C@H](C)[C@@H](O[C@@H]2O[C@H](C)CC(N(C)C)[C@H]2O)[C@](C)(O)C[C@@H](C)CN(C)[C@H](C)[C@@H](O)[C@]1(C)O (some centres unmarked) [Compound 40]	>50				
CC[C@H]1OC(=O)[C@H](C)[C@@H](O[C@H]2C[C@@](C)(OC)[C@@H](O)[C@H](C)O2)[C@H](C)[C@@H](O[C@@H]2O[C@H](C)C[C@H](N(C)C)[C@H]2O)[C@](C)(O)C[C@@H](C)CN(C)[C@H](C)[C@@H](O)[C@]1(C)O [Compound 43, 9a-aza-9a-methyl-9-deoxo-9a-homoerythromycin A, reference compound]	2.3				
CC[C@H]1OC(=O)[C@H](C)[C@@H](O[C@H]2C[C@@](C)(OC)[C@@H](O)[C@H](C)O2)[C@H](C)[C@@H](O[C@@H]2O[C@H](C)CC(N(C)C(=O)CN(C)CCO)[C@H]2O)[C@](C)(O)C[C@@H](C)CN(C)[C@H](C)[C@@H](O)[C@]1(C)O (some centres unmarked) [Compound 45]	>50				
CC[C@H]1OC(=O)[C@H](C)C(=O)[C@H](C)[C@@H](O[C@@H]2O[C@H](C)C[C@H](N(C)C)[C@H]2OC(=O)Cc2ccccc2Nc2c(Cl)cccc2Cl)[C@](C)(O)C[C@@H](C)CN(C)[C@H](C)[C@@H](O)[C@]1(C)O [Compound 53]	>50				
CC[C@H]1OC(=O)[C@H](C)[C@@H](O[C@H]2C[C@@](C)(OC)[C@@H](O)[C@H](C)O2)[C@H](C)[C@@H](O[C@@H]2O[C@H](C)CC(N(C)C)[C@H]2OC(=O)CC/C(C)=C/Cc2c(O)c3c(c(C)c2OC)COC3=O)[C@](C)(O)C[C@@H](C)CN(C)[C@H](C)[C@@H](O)[C@]1(C)O (some centres unmarked) [Compound 67]		1.3	1.74	1.36	
CCOC(=O)CC/C(C)=C/Cc1c(CC(=O)CCC(=O)O[C@@H]2C(N(C)C)C[C@@H](C)O[C@H]2O[C@@H]2[C@@H](C)[C@H](O[C@H]3C[C@@](C)(OC)[C@@H](O)[C@H](C)O3)[C@@H](C)C(=O)O[C@H](CC)[C@@](C)(O)[C@H](O)[C@@H](C)N(C)C[C@H](C)C[C@@]2(C)O)c2c(c(C)c1OC)COC2=O (some centres unmarked) [Compound 69]		1.9	2.66	1.4	
CC[C@H]1OC(=O)[C@H](C)[C@@H](C)[C@H](C)[C@@H](O[C@@H]2O[C@H](C)C[C@@H](N(C)CCOC(=O)CC/C(C)=C/Cc3c(O)c4c(c(C)c3OC)COC4=O)[C@@H]2N(C)C)[C@](C)(O)C[C@@H](C)CN(C)[C@H](C)[C@@H](O)[C@]1(C)O [Compound 74]		1.45	3.2	2.2	
COc1c(C)c2c(c(O)c1C/C=C(\C)CCC(=O)O)C(=O)OC2 [Mycophenolic acid]					effect in the presence of guanosine ([4]; 50 μM guanosine): completely removed; IC50 ([4]; normal culture conditions): < 2 µM
